From patent publication EP4606382A1, “INHIBITORS OF TANGO1 ACTIVITY AND METHODS OF USE THEREOF” (Fundació Centre de Regulació Genòmica, priority 2024, dated 2025) come the findings set out here.

The subject of this data set is normal human skin fibroblasts. Put plainly: LDH release cytotoxicity assay. The class given is cell-based. As to conditions: primary human skin fibroblasts. Here is the method: To test if the peptides efficiently reduce collagen secretion also in primary cells derived from human individuals, normal human skin fibroblasts, the key producers of collagen in connective tissues, were treated with the peptides P2 and P5.
Cytotoxic effects induced by peptide treatment were determined by lactate dehydrogenase (LDH) levels in fibroblast supernatants using Cytotoxicity Assay (Promega G1780) according to the manufacturer's instructions.
For orientation: LDH in the medium is a marker of cell lysis.

Ends that are not written are not given here.

Regarding “LEKEEKLSKVDEKISHATEELETYRKRAKDLGLRKRLRKFRNK-NH2 [Peptide P5]”, the “cytotoxic effects (LDH release)” value is listed as “neither P2 nor P5 nor P2+P5 exerted cytotoxic effects”.

For the substance “LRQKVEILNELYQQKEMALQKKLSQEEYERGLRKRLRKFRNK-NH2 [Peptide P2]”, the “cytotoxic effects (LDH release)” value was “neither P2 nor P5 nor P2+P5 exerted cytotoxic effects”.
